Experimental data as given in patent US20240317727A1 (Duke University, priority 2018, published 2024).
Each block holds one molecule with its values, some of them ahead of it.

Molecular target: T1, recombinant HSF1 DNA-binding domain (DBD) (Homo sapiens, UniProt Q00613)
T1 sequence (Q00613 15-120): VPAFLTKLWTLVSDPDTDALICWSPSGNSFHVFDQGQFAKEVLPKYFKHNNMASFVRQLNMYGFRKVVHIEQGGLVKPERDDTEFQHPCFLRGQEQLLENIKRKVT
Experiment: Differential Scanning Fluorimetry (DSF), HSF1 DBD melting temperature
Details: 5 μM HSF1 DBD, 25PM Compound, positive = stabilizes, negative = destabilizes HSF1

SMILES: O=C(Nc1ccc(Cl)cc1)Nc1ccc(Cl)c(Cl)c1 [Compound 0001]
ΔTm at 25 µM (Table 1): 4.78 °C

SMILES: Cc1ccc(CNC(=O)CSc2nnc(-c3cccc(N)c3)n2-c2ccccc2)cc1 [Compound 0004]
ΔTm at 25 µM (Table 1): -9.46 °C

SMILES: O=[N+]([O-])c1cc(C(F)(F)F)cc([N+](=O)[O-])c1O/N=C1\CSCc2ccccc21 [Compound 0008]
ΔTm at 25 µM (Table 1): -4.56 °C

SMILES: O=C(N/C=C/c1ccsc1)Nc1cc(Cl)ccc1F [Compound 0010]
ΔTm at 25 µM (Table 1): 5.43 °C

SMILES: COc1ccc(NC(=O)Nc2ccc(C)cc2)cc1 [Compound 0011, 1-(4-methoxyphenyl)-3-(p-tolyl)urea]
ΔTm at 25 µM (Table 1): 2.61 °C

SMILES: O=[N+]([O-])c1cc(C(F)(F)F)cc([N+](=O)[O-])c1Oc1ccc(F)cc1F [Compound 0012]
ΔTm at 25 µM (Table 1): -4.73 °C

SMILES: COC(=O)c1cc(C#N)c(Sc2c([N+](=O)[O-])cc(C(F)(F)F)cc2[N+](=O)[O-])nc1C(OC)OC [Compound 0013]
ΔTm at 25 µM (Table 1): -7.4 °C

SMILES: Cn1ncc(S(=O)(=O)Cc2ccccc2)c(Cl)c1=O [Compound 0014]
ΔTm at 25 µM (Table 1): -4.56 °C

SMILES: O=C(Nc1ccc(F)cc1)Nc1ccc(Cl)c([N+](=O)[O-])c1 [Compound 017, 1-(4-chloro-3-nitrophenyl)-3-(4-fluorophenyl)urea]
ΔTm at 25 µM (Table 3): 3 °C

SMILES: O=C(Nc1ccc(Cl)cc1)Nc1ccc(Cl)cc1 [Compound 018, 1,3-bis(4-chlorophenyl)urea]
ΔTm at 25 µM (Table 3): 2.44 °C

SMILES: O=C(Nc1cccc(F)c1)Nc1ccc(Cl)c([N+](=O)[O-])c1 [Compound 0020, 1-(4-chloro-3-nitrophenyl)-3-(3-fluorophenyl)urea]
ΔTm at 25 µM (Table 1): 5.2 °C

SMILES: O=C(Nc1cccc(F)c1)Nc1ccc(Cl)c([N+](=O)[O-])c1 [Compound 020, 1-(4-chloro-3-nitrophenyl)-3-(3-fluorophenyl)urea]
ΔTm at 25 µM (Table 3): 5.2 °C

SMILES: O=C(Nc1ccccc1)Nc1ccc(Cl)c(Cl)c1 [Compound 0022, 1-(3,4-dichlorophenyl)-3-phenylurea]
ΔTm at 25 µM (Table 1): 2.78 °C

SMILES: CN(C(=O)Nc1ccc(Cl)c([N+](=O)[O-])c1)c1ccc(F)cc1 [Compound 023, 3-(4-chloro-3-nitro-phenyl)-1-(4-fluorophenyl)-1-methyl-urea]
ΔTm at 25 µM (Table 3): 0.67 °C

SMILES: Oc1ccc(Cl)cc1/C=N/Nc1cccc(C(F)(F)F)c1 [Compound 0024]
ΔTm at 25 µM (Table 1): 4.44 °C

SMILES: Cc1ccc(CNC(=O)CSc2nnc(-c3ccc(C)cc3)n2-c2ccccc2)cc1 [Compound 0025]
ΔTm at 25 µM (Table 1): -9.21 °C

SMILES: Cc1cccc(NC(=O)Nc2ccc(Cl)c([N+](=O)[O-])c2)c1 [Compound 026, 1-(4-chloro-3-nitrophenyl)-3-(m-tolyl)urea]
ΔTm at 25 µM (Table 3): 5.75 °C

SMILES: O=C(Nc1cccnc1)c1cc2c(s1)-c1ccccc1CC2 [Compound 0028]
ΔTm at 25 µM (Table 1): -9.69 °C

SMILES: O=C(CSc1nnc(-c2ccncc2)n1-c1ccccc1)N/N=C/c1cccnc1 [Compound 0029]
ΔTm at 25 µM (Table 1): -8.96 °C

SMILES: N=C(Nc1ccc(F)cc1)Nc1ccc(Cl)c(C(F)(F)F)c1 [Compound 0032, 1-[4-chloro-3-(trifluoromethyl)phenyl]-3-(4-fluorophenyl)guanidine]
ΔTm at 25 µM (Table 1): 0.75 °C

SMILES: O=S1(=O)N=C(Nc2ccc(F)cc2)C(Nc2ccc(Cl)c(C(F)(F)F)c2)=N1 [Compound 0033, N3-[4-chloro-3-(trifluoromethyl)phenyl]-N4-(4-fluorophenyl)-1,1-dioxo-1,2,5-thiadiazole-3,4-diamine]
ΔTm at 25 µM (Table 1): 1.9 °C

Other lines, results leading:

ΔTm at 25 µM (Table 1): 1.9 °C
SMILES: O=c1c(Nc2ccc(F)cc2)c(Nc2ccc(Cl)c([N+](=O)[O-])c2)c1=O [Compound 0002, 3-(4-chloro-3-nitro-anilino)-4-(4-fluoroanilino)cyclobut-3-ene-1,2-dione]

ΔTm at 25 µM (Table 3): 1.9 °C
SMILES: O=c1c(Nc2ccc(F)cc2)c(Nc2ccc(Cl)c([N+](=O)[O-])c2)c1=O [Compound 002, 3-(4-chloro-3-nitro-anilino)-4-(4-fluoroanilino)cyclobut-3-ene-1,2-dione]

ΔTm at 25 µM (Table 1): 1.78 °C
SMILES: O=C(Nc1ccc(F)cc1)Nc1cccc(C(F)(F)F)c1 [Compound 0003, 1-(4-fluorophenyl)-3-(3-(trifluoromethyl)phenyl)urea]

ΔTm at 25 µM (Table 3): 1.78 °C
SMILES: O=C(Nc1ccc(F)cc1)Nc1cccc(C(F)(F)F)c1 [Compound 003, 1-(4-fluorophenyl)-3-(3-(trifluoromethyl)phenyl)urea]

ΔTm at 25 µM (Table 3): 5.1 °C
SMILES: O=C(Nc1ccc(F)cc1)Nc1ccc(Br)c(C(F)(F)F)c1 [Compound 005, 1-(4-bromo-3-(trifluoromethyl)phenyl)-3-(4-fluorophenyl)urea]

ΔTm at 25 µM (Table 3): 2.5 °C
SMILES: Cc1cccc(NC(=O)Nc2cccc(Cl)c2)c1 [Compound 006, 1-(3-chlorophenyl)-3-(m-tolyl)urea]

ΔTm at 25 µM (Table 3): 2.61 °C
SMILES: COc1ccc(NC(=O)Nc2ccc(C)cc2)cc1 [Compound 011, 1-(4-methoxyphenyl)-3-(p-tolyl)urea]

ΔTm at 25 µM (Table 1): 3.44 °C
SMILES: Oc1ccccc1/C=N/NC(=S)Nc1cccc(Cl)c1 [Compound 0015]

ΔTm at 25 µM (Table 1): 2.75 °C
SMILES: O=c1c(Nc2ccc(F)c(F)c2)c(Nc2ccc(Cl)c(S(=O)(=O)C(F)(F)F)c2)c1=O [Compound 0016, 3-[4-chloro-3-(trifluoromethylsulfonyl)anilino]-4-(3,4-difluoroanilino)cyclobut-3-ene-1,2-dione]

ΔTm at 25 µM (Table 3): 2.75 °C
SMILES: O=c1c(Nc2ccc(F)c(F)c2)c(Nc2ccc(Cl)c(S(=O)(=O)C(F)(F)F)c2)c1=O [Compound 016, 3-[4-chloro-3-(trifluoromethylsulfonyl)anilino]-4-(3,4-difluoroanilino)cyclobut-3-ene-1,2-dione]

ΔTm at 25 µM (Table 1): 2.44 °C
SMILES: O=C(Nc1ccc(Cl)cc1)Nc1ccc(Cl)cc1 [Compound 0018, 1,3-bis(4-chlorophenyl)urea]

ΔTm at 25 µM (Table 1): -9.19 °C
SMILES: CCOC(=O)c1c(Cl)c2ccccc2oc1=O [Compound 0021]

ΔTm at 25 µM (Table 3): 2.78 °C
SMILES: O=C(Nc1ccccc1)Nc1ccc(Cl)c(Cl)c1 [Compound 022, 1-(3,4-dichlorophenyl)-3-phenylurea]

ΔTm at 25 µM (Table 1): 0.67 °C
SMILES: CN(C(=O)Nc1ccc(Cl)c([N+](=O)[O-])c1)c1ccc(F)cc1 [Compound 0023, 3-(4-chloro-3-nitro-phenyl)-1-(4-fluorophenyl)-1-methyl-urea]

ΔTm at 25 µM (Table 1): 5.75 °C
SMILES: Cc1cccc(NC(=O)Nc2ccc(Cl)c([N+](=O)[O-])c2)c1 [Compound 0026, 1-(4-chloro-3-nitrophenyl)-3-(m-tolyl)urea]

ΔTm at 25 µM (Table 1): 2.8 °C
SMILES: O=C(Nc1ccc(F)cc1)Nc1ccc2nonc2c1 [Compound 0027, 1-(2,1,3-benzoxadiazol-5-yl)-3-(4-fluorophenyl)urea]

ΔTm at 25 µM (Table 3): 2.8 °C
SMILES: O=C(Nc1ccc(F)cc1)Nc1ccc2nonc2c1 [Compound 027, 1-(2,1,3-benzoxadiazol-5-yl)-3-(4-fluorophenyl)urea]

ΔTm at 25 µM (Table 1): -8.57 °C
SMILES: Cc1ccc(-n2c(SCC(=O)NC(C)c3ccccc3)nnc2-c2ccccc2)cc1 (stereo not shown) [Compound 0030]

ΔTm at 25 µM (Table 1): -6.23 °C
SMILES: CSc1nnc(SC2=CC(=O)CC(c3ccccc3)C2)s1 (stereo not shown) [Compound 0031]

ΔTm at 25 µM (Table 3): 0.75 °C
SMILES: N=C(Nc1ccc(F)cc1)Nc1ccc(Cl)c(C(F)(F)F)c1 [Compound 032, 1-[4-chloro-3-(trifluoromethyl)phenyl]-3-(4-fluorophenyl)guanidine]

ΔTm at 25 µM (Table 3): 1.9 °C
SMILES: O=S1(=O)N=C(Nc2ccc(F)cc2)C(Nc2ccc(Cl)c(C(F)(F)F)c2)=N1 [Compound 033, N3-[4-chloro-3-(trifluoromethyl)phenyl]-N4-(4-fluorophenyl)-1,1-dioxo-1,2,5-thiadiazole-3,4-diamine]

ΔTm at 25 µM (Table 1): 5.7 °C
SMILES: O=C(Nc1ccc(F)c(F)c1)Nc1ccc(Cl)c([N+](=O)[O-])c1 [Compound 0034, 1-(4-chloro-3-nitrophenyl)-3-(3,4-difluorophenyl)urea]
